What all share (experiment): biochemical
Common to all, as to assay type: binding

The target of test [1] is T1, panel of 442 kinases (Homo sapiens, UniProt P07333).
T1 construct: purchased Ambit Biosciences (scanMAXX KINOMEscan)
Particulars: CSF1R; for remaining activity at 1 µM: read-out: % of control at 1 µM.

Test [2] addresses T2, panel of 442 kinases (Homo sapiens, UniProt P08922).
T2 construct: purchased Ambit Biosciences (scanMAXX KINOMEscan)
Particulars: kinase ROS1; for remaining activity at 1 µM: read-out: ROS1 (% of control at 1 µM).

Test [3] has as its target T3, panel of 442 kinases (Homo sapiens, UniProt P46734).
T3 construct: purchased Ambit Biosciences (scanMAXX KINOMEscan)
T3 sequence (P46734 1-347): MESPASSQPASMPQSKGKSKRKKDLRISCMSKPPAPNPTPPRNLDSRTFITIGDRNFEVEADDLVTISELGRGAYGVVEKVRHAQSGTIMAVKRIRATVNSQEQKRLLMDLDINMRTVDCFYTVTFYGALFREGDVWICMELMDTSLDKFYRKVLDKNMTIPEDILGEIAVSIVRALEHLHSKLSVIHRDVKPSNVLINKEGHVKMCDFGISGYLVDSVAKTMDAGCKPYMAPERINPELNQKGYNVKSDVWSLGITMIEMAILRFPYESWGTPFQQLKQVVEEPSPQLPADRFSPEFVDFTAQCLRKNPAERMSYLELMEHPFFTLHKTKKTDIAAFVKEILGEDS
Particulars: kinase MEK3; for remaining activity at 1 µM: read-out: % of control at 1 µM.

Test [4] has as its target T4, panel of 442 kinases (Homo sapiens, UniProt Q14012).
T4 construct: purchased Ambit Biosciences (scanMAXX KINOMEscan)
Particulars: CAMK1; for remaining activity at 1 µM: read-out: % of control at 1 µM.

The target of test [5] is T5, panel of 442 kinases (Homo sapiens, UniProt Q15835).
T5 construct: purchased Ambit Biosciences (scanMAXX KINOMEscan)
T5 sequence (Q15835 1-563): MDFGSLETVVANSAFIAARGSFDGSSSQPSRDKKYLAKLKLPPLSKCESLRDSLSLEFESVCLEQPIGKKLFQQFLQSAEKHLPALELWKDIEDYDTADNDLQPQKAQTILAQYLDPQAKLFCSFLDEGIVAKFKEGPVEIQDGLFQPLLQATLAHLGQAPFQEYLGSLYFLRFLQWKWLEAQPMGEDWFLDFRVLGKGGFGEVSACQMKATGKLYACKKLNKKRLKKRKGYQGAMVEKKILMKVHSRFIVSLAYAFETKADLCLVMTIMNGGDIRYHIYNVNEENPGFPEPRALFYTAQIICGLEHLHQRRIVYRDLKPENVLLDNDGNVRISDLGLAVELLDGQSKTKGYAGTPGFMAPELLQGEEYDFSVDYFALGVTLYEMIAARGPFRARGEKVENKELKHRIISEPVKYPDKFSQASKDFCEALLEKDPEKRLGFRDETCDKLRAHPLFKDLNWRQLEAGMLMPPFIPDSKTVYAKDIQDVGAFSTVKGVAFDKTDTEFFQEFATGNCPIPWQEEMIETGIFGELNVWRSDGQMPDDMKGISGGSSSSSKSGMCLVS
Particulars: kinase GRK1; for remaining activity at 1 µM: read-out: % of control at 1 µM.

Test [6] deals with T6, panel of 442 kinases (Homo sapiens, UniProt Q16539).
T6 construct: purchased Ambit Biosciences (scanMAXX KINOMEscan)
T6 sequence (Q16539 whole entry): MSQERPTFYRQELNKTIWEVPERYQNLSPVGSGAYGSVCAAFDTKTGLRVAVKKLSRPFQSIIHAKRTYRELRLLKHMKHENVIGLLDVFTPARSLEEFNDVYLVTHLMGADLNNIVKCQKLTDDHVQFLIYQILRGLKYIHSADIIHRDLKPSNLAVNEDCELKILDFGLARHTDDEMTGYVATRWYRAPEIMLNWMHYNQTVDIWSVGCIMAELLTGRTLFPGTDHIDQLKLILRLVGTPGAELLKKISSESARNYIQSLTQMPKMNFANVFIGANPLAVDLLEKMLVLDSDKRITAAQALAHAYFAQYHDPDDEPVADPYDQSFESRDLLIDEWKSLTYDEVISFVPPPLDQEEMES
Particulars: kinase p38-alpha; for remaining activity at 1 µM: read-out: % of control at 1 µM.

For test [7], the target named is T7, panel of 442 kinases (Homo sapiens, UniProt Q99759).
T7 construct: purchased Ambit Biosciences (scanMAXX KINOMEscan)
T7 sequence (Q99759 1-626): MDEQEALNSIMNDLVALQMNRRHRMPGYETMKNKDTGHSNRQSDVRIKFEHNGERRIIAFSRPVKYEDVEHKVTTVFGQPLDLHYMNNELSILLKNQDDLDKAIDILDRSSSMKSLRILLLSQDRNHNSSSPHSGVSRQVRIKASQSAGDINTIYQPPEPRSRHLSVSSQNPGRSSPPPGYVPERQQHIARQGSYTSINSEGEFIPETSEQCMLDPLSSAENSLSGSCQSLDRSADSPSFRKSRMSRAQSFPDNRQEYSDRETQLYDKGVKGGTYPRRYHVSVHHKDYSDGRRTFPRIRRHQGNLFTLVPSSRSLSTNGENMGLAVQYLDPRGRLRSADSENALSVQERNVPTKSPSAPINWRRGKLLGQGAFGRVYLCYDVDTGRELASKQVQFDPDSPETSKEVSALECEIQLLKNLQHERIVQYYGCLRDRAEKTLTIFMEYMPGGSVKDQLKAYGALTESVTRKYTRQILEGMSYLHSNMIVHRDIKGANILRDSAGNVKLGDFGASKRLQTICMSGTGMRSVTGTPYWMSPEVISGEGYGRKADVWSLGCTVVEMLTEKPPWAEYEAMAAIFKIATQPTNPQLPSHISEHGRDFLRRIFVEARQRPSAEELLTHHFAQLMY
Particulars: kinase MAP3K3; for remaining activity at 1 µM: read-out: % of control at 1 µM.

The target of test [8] is T8, panel of 442 kinases (Homo sapiens, UniProt Q9P2K8, S808G).
T8 construct: purchased Ambit Biosciences (scanMAXX KINOMEscan)
T8 sequence (Q9P2K8 whole entry S808G): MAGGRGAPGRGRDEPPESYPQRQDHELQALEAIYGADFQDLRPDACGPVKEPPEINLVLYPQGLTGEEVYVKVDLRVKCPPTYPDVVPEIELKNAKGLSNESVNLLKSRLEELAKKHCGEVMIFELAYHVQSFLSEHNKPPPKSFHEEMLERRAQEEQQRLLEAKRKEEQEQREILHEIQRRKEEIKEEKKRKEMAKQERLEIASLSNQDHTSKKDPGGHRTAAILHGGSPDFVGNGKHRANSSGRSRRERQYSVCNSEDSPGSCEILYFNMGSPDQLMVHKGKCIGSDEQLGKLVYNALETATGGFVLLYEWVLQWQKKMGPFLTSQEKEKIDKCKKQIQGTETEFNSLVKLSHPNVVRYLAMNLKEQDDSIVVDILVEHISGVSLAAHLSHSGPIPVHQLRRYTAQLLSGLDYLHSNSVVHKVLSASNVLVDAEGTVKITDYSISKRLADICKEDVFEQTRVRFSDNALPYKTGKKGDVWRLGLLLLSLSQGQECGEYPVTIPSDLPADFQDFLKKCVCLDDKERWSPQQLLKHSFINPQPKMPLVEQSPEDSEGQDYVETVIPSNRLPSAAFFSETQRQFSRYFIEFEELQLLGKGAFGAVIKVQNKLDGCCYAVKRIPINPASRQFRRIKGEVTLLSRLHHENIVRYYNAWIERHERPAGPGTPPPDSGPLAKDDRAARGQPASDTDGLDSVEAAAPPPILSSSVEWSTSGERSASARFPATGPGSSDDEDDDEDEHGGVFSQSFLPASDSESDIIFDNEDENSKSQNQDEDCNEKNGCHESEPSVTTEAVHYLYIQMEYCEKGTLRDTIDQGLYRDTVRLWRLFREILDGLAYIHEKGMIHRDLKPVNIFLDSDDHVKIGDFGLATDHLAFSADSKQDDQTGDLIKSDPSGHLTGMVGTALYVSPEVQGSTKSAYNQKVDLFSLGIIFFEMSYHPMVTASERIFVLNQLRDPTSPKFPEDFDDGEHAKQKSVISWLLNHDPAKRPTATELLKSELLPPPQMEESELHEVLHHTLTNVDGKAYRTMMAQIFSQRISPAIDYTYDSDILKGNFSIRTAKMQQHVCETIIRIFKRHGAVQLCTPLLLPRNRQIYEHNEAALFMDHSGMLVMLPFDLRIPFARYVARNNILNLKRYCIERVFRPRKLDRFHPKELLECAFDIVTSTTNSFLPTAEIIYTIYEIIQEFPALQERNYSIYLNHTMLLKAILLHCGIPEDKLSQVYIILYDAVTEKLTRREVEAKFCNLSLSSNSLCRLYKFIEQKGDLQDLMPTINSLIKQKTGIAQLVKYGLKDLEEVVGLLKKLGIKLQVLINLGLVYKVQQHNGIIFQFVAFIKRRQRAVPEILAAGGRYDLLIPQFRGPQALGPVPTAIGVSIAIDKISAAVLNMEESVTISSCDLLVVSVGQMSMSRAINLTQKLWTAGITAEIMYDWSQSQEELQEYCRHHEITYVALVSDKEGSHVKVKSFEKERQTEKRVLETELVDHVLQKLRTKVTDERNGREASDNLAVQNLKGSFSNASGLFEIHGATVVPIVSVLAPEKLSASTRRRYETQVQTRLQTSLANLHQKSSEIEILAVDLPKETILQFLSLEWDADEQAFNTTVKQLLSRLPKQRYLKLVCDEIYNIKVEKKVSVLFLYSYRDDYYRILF
Particulars: kinase GCN2(Kin.Dom.2,S808G); for remaining activity at 1 µM: read-out: % of control at 1 µM.

The mark [9] stands for this setting: 10 µM, read-out: % of control at 10 µM.

Our source for the remaining activity values is publication PMC5564600 (Oncotarget, 2017).

T2 sequence (P08922 28-2347): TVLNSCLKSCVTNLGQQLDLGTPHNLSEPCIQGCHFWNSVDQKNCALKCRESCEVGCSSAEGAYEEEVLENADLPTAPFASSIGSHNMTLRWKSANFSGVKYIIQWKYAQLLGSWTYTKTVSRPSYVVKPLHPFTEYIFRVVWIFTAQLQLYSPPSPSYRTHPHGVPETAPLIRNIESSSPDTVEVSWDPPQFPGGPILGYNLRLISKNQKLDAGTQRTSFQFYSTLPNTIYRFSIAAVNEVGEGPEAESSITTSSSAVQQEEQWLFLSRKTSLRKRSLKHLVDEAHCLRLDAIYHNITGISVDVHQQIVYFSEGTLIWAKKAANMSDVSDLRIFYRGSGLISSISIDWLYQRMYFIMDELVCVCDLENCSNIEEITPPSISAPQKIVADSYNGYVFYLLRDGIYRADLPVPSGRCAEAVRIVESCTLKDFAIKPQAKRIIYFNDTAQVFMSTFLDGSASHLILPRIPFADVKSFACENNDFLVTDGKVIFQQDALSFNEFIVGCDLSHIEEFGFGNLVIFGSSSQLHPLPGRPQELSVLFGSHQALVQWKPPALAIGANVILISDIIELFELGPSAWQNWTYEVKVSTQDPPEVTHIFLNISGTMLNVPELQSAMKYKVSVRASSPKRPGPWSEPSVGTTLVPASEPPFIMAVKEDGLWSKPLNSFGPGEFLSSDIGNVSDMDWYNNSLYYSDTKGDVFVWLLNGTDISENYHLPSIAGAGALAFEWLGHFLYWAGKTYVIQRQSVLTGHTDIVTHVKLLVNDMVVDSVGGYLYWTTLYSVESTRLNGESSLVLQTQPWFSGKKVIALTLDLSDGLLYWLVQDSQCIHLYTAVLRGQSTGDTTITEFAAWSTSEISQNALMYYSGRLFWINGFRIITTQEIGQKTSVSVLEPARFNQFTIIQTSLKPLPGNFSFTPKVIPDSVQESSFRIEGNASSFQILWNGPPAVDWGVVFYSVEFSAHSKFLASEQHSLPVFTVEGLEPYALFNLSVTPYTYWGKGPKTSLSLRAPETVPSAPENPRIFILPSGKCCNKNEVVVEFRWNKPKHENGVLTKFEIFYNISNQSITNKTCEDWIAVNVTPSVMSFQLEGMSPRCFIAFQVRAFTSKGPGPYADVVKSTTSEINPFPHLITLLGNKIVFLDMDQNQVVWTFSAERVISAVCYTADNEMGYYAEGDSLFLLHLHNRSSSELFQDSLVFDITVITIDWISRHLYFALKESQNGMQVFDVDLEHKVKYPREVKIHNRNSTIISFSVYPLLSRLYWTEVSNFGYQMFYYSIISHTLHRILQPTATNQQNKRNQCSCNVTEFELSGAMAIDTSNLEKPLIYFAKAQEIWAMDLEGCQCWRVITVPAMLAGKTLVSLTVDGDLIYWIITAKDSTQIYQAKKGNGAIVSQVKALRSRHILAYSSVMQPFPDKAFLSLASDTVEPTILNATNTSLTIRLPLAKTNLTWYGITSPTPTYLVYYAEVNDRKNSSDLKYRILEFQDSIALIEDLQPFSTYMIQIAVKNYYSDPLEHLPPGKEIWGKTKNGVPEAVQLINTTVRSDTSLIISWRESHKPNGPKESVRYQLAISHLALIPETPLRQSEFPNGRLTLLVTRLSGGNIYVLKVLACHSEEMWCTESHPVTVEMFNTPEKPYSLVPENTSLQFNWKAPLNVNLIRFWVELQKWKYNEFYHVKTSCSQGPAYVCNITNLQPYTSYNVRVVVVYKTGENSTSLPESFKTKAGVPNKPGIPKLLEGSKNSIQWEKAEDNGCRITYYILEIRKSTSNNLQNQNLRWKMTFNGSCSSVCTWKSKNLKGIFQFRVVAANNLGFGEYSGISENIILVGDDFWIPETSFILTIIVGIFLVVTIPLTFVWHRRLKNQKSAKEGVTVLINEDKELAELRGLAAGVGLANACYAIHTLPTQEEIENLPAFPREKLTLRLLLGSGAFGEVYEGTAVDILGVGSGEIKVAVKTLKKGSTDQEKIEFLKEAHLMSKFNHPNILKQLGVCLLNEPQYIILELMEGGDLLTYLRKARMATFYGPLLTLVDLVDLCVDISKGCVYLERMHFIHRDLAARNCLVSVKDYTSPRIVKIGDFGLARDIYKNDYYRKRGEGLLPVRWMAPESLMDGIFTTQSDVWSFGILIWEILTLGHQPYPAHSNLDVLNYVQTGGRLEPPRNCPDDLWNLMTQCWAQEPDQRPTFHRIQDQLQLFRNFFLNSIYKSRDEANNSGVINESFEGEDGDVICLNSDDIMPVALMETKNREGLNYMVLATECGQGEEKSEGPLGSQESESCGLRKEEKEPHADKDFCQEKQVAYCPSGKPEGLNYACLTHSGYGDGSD
T4 sequence (Q14012 whole entry): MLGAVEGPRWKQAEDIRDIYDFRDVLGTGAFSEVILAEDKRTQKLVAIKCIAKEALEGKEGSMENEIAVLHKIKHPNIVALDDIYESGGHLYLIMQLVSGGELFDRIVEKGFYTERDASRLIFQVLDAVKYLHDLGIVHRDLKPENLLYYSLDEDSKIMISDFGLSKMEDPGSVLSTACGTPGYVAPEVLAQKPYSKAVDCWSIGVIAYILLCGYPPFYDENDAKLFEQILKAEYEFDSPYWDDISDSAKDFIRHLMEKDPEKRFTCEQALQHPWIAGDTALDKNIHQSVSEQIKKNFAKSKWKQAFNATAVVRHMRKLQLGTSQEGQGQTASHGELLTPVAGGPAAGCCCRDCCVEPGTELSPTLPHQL

Take `Nc1cc(C(F)(F)F)c(-c2cc(N3CCOCC3)nc(N3CCOCC3)n2)cn1` [Buparlisib]: the remaining activity at 1 µM is 85% in test [1]; 84% in test [2]; 100% in test [3]; 100% in test [4]; 100% in test [5]; 87% in test [6]. Also, the results for the remaining activity at 1 µM in test [7] and in test [8] were 98% and 100%, respectively. In addition, the remaining activity at 10 µM in test [1] (setting [9]) amounted to 40%; in test [2] (10 µM, read-out: ROS1 (% of control at 10 µM)), 79%; in test [3] (setting [9]) it was 100%; in test [4] (setting [9]), 100%; in test [5] (setting [9]), 100%; in test [6] (setting [9]) it was 100%. Besides, the remaining activity at 10 µM in test [7] (setting [9]) and in test [8] (setting [9]) was 100% in each case.

Take `Cn1c(=O)n(-c2ccc(C(C)(C)C#N)cc2)c2c3cc(-c4cnc5ccccc5c4)ccc3ncc21` [Dactolisib, 2-methyl-2-[4-(3-methyl-2-oxo-8-quinolin-3-yl-2,3-dihydroimidazo[4,5-c]quinolin-1-yl)-phenyl] propionitrile]: the remaining activity at 1 µM in test [2] stood at 100%; in test [3], 96%; in test [4], 78%; in test [5], 100%; in test [6], 87%; in test [7], 81%. The remaining activity at 1 µM in test [8] turned out to be 87%.

Turning to `FC(F)c1nc2ccccc2n1-c1nc(N2CCOCC2)nc(N2CCOCC2)n1` [ZSTK474, 2-(difluoromethyl)-1-[4,6-di(4-morpholinyl)-1,3,5-triazin-2-yl]-1H-benzimidazole], the remaining activity at 1 µM in test [1] came out at 90%; in test [2] it was 100%; in test [3], 100%; in test [4], 100%; in test [5] it was 100%; in test [6], 100%. For the same molecule, the remaining activity at 1 µM is 74% in test [7] and 89% in test [8].

Regarding `COc1ncc(-c2ccc3nccc(-c4ccnnc4)c3c2)cc1NS(=O)(=O)c1ccc(F)cc1F` [Omipalisib], the remaining activity at 1 µM in test [1] stood at 100%; in test [2], 100%; in test [3], 46%; in test [4], 100%; in test [5], 81%; in test [6] it was 97%. Besides, the remaining activity at 1 µM in test [7] and in test [8] was 100% in each case.
